Assay results taken from BigSolDB 2.1.

CSCC[C@H](NC(=O)OCC1c2ccccc2-c2ccccc21)C(=O)O
solubility (mole fraction)
Conditions	283.15 K	288.15 K	293.15 K	298.15 K	303.15 K	308.15 K	313.15 K	318.15 K	323.15 K
in 2-butanone	0.0269	0.0314	0.0336	0.0406	0.0454	0.0513	0.0621	0.0695	0.0818
in acetone	0.0457	0.0475	0.0553	0.0614	0.0722	0.0806	0.0892	0.0961	0.11
in acetonitrile	0.00368	0.00465	0.00571	0.00724	0.00847	0.00974	0.0111	0.0127	0.0155
in isobutanol	0.00438	0.00573	0.00736	0.0102	0.0136	0.0165	0.023	0.032	0.0402
in isopentanol	0.00409	0.00489	0.00573	0.00778	0.00996	0.0126	0.0154	0.02	0.0248
in isopropanol	0.00635	0.00765	0.00792	0.00932	0.0142	0.0213	0.0326	0.0474	0.0669
in n-butanol	0.0142	0.0178	0.0204	0.0237	0.0295	0.0339	0.0394	0.0478	0.0542
in n-butyl acetate	0.0129	0.015	0.0173	0.0203	0.0242	0.028	0.0347	0.0426	0.0532
in n-pentanol	0.00977	0.0117	0.0149	0.019	0.0272	0.033	0.0399	0.0514	0.0667
in n-propanol	0.0101	0.0141	0.0172	0.0231	0.0271	0.0324	0.0407	0.0496	0.0542
in n-propyl acetate	0.0155	0.0181	0.021	0.0252	0.0295	0.0361	0.0399	0.043	0.0456
in sec-butanol	0.00898	0.0109	0.0152	0.0223	0.0311	0.0438	0.0506	0.0612	0.0868
